{"source": "patent US20230183239A1", "about": "“ECTONUCLEOTIDE PYROPHOSPHATASE-PHOSPHODIESTERASE 1 (ENPP-1) INHIBITORS AND USES THEREOF” (AbbVie Inc., priority 2017, published 2023)", "data": [{"biological_target": "T1, ENPP1 (Homo sapiens, UniProt P22413)", "T1 sequence (P22413 1-925)": "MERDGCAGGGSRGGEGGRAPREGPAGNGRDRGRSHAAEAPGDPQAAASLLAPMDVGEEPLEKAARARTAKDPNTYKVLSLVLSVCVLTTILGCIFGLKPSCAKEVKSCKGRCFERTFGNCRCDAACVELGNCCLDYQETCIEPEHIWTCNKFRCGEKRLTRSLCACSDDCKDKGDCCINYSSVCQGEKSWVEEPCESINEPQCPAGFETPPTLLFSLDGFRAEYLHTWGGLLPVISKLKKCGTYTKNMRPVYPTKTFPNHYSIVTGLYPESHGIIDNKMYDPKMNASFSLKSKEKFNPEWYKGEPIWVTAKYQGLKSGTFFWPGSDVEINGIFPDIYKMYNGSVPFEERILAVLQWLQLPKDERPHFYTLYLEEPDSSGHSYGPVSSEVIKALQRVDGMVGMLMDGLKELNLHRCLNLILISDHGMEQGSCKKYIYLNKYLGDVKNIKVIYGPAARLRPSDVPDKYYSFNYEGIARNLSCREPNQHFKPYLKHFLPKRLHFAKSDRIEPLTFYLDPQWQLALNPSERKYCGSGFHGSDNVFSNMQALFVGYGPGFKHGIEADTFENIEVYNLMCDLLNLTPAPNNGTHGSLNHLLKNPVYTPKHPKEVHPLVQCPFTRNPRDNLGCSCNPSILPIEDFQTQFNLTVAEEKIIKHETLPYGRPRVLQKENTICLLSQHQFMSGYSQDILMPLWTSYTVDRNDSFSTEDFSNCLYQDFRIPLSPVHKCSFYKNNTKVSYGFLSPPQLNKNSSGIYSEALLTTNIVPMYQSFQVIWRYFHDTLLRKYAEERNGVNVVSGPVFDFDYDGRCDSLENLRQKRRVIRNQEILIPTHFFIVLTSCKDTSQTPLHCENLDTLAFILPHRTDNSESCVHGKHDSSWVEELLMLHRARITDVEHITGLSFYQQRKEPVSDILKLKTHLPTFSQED", "experiment": "Indirect quantitation of 2',3'-cGAMP hydrolysis (AMP-Glo Assay kit)", "type": "biochemical", "conditions": "cGAMP substrate; Ki from IC50 by Cheng-Prusoff; read-out: ENPP1 Inhibition -cGAMP: Ki", "units": {"Ki": "nM"}, "values": [{"smiles": "COc1ccc2c(-c3ccc4c(c3)CNCC4)c(C#N)cnc2c1", "note": "[Example 276, 7-methoxy-4-(1,2,3,4-tetrahydroisoquinolin-7-yl)quinoline-3-carbonitrile]", "Ki": "> 1000"}, {"smiles": "COc1cc2ncc(-c3ccc(CNS(N)(=O)=O)cc3)nc2cc1OC", "note": "[Example 278, N-(4-(6,7-dimethoxyquinoxalin-2-yl)benzyl)sulfamide]", "Ki": "> 1000"}, {"smiles": "COc1cc2ncc(Oc3ccc(NS(N)(=O)=O)cc3)nc2cc1OC", "note": "[Example 280, N-(4-((6,7-dimethoxyquinoxalin-2-yl)oxy)phenyl)sulfamide]", "Ki": "> 1000"}, {"smiles": "COc1cc2ncc(Nc3ccc(NS(N)(=O)=O)cc3)nc2cc1OC", "note": "[Example 286, N-(4-((6,7-dimethoxyquinoxalin-2-yl)amino)phenyl)sulfamide]", "Ki": "> 1000"}, {"smiles": "COc1cc2ncnc(NC(C)(C)c3ccc(NS(N)(=O)=O)cc3)c2cc1OC", "note": "[Example 287, N-(4-(2-((6,7-dimethoxyquinazolin-4-yl)amino)propan-2-yl)phenyl)sulfamide]", "Ki": "> 1000"}, {"smiles": "COc1cc2ncc(-c3ccc4c(c3)CN(S(N)(=O)=O)CC4)nc2cc1OC", "note": "[Example 295, 7-(6,7-dimethoxyquinoxalin-2-yl)-3,4-dihydroisoquinoline-2(1H)-sulfonamide]", "Ki": "> 1000"}, {"smiles": "NS(=O)(=O)Nc1ccc(Oc2ccnc3cc(F)ccc23)cc1", "note": "[Example 298, N-(4-((7-fluoroquinolin-4-yl)oxy)phenyl)sulfamide]", "Ki": "> 1000"}, {"smiles": "COc1ccc2c(Oc3ccc(N(Cc4ccccc4)S(N)(=O)=O)cc3)ccnc2c1", "note": "[Example 309, N-benzyl-N-(4-((7-methoxyquinolin-4-yl)oxy)phenyl)sulfamide]", "Ki": "100 to 1000"}, {"smiles": "COc1ccc2c(Oc3ccc(N(C4CC4)S(N)(=O)=O)cc3)ccnc2c1", "note": "[Example 310, N-cyclopropyl-N-(4-((7-methoxyquinolin-4-yl)oxy)phenyl)sulfamide]", "Ki": "< 100"}, {"smiles": "COc1ccc2c(Oc3ccc4c(c3)CCC(=O)N4)ccnc2c1", "note": "[Example 318, 6-((7-methoxyquinolin-4-yl)oxy)-3,4-dihydroquinolin-2(1H)-one]", "Ki": "> 1000"}, {"smiles": "COc1ccc2c(Oc3ccc(NS(N)(=O)=O)cn3)ccnc2c1", "note": "[Example 320, N-(6-((7-methoxyquinolin-4-yl)oxy)pyridin-3-yl)sulfamide]", "Ki": "< 100"}, {"smiles": "NS(=O)(=O)Nc1ccc(Oc2ccnc3[nH]ccc23)cc1", "note": "[Example 321, N-(4-((1H-pyrrolo[2,3-b]pyridin-4-yl)oxy)phenyl)sulfamide]", "Ki": "> 1000"}, {"smiles": "COc1ccc2c(Oc3ccc(NS(N)(=O)=O)cc3)ncnc2c1", "note": "[Example 322, N-(4-((7-methoxyquinazolin-4-yl)oxy)phenyl)sulfamide]", "Ki": "< 100"}, {"smiles": "COc1ccc2c(Oc3ccc(NS(N)(=O)=O)cc3OC)ccnc2c1", "note": "[Example 323, N-(3-methoxy-4-((7-methoxyquinolin-4-yl)oxy)phenyl)sulfamide]", "Ki": "> 1000"}, {"smiles": "COc1ccc2c(-c3ccc(CN(C4CC4)S(N)(=O)=O)cc3)ncnc2c1", "note": "[Example 324, N-cyclopropyl-N-(4-(7-methoxyquinazolin-4-yl)benzyl)sulfamide]", "Ki": "100 to 1000"}, {"smiles": "COc1cc2ncnc(NCc3ccc4c(c3)COB4O)c2cc1OC", "note": "[Example 325, 5-(((6,7-dimethoxyquinazolin-4-yl)amino)methyl)benzo[c][1,2]oxa borol-1(3H)-ol]", "Ki": "< 100"}, {"smiles": "COc1ccc2c(Oc3ccc(NS(N)(=O)=O)cc3C)ccnc2c1", "note": "[Example 326, N-(4-((7-methoxyquinolin-4-yl)oxy)-3-methylphenyl)sulfamide]", "Ki": "< 100"}, {"smiles": "COc1ccc2c(Oc3ccc(S(N)(=O)=O)cc3)c(C#N)cnc2c1", "note": "[Example 327, 4-((3-cyano-7-methoxyquinolin-4-yl)oxy)benzenesulfonamide]", "Ki": "< 100"}, {"smiles": "COc1ccc2c(-c3ccc(CNS(N)(=O)=O)cc3C)ccnc2c1", "note": "[Example 328, N-(4-(7-methoxyquinolin-4-yl)-3-methylbenzyl)sulfamide]", "Ki": "100 to 1000"}, {"smiles": "COc1ccc2c(Oc3ccc(NS(N)(=O)=O)cc3Cl)ccnc2c1", "note": "[Example 329, N-(3-chloro-4-((7-methoxyquinolin-4-yl)oxy)phenyl)sulfamide]", "Ki": "100 to 1000"}]}]}
